Experimental data as given in US20250034079A1, “PROCESS FOR RECOVERING AMINOBENZOIC ACID FROM AN AQUEOUS MOTHER LIQUOR” (Covestro Deutschland AG, priority 2021, published 2025).
≈ marks a conversion by molar mass, not a printed value.

Tests used:
physchem = conditions: for solubility: water; for Solubility in water at RT: solubility of the extractant
Procedure: (§1) The remaining mother liquor was extracted in one stage with various solvents (step (C)). […] The extraction was conducted at 30° C. The experiments were assessed by ascertaining the partition coefficients K (=ratio of the ortho-aminobenzoic acid [oAB] concentration in g/L in the organic phase [ORG=first alcoholic phase] to the aqueous phase [AQ=first aqueous phase]), the solubilities of the extractant in the aqueous phase after the extraction (=first aqueous phase) and—in four cases—the proportion by mass of organic secondary components (SC) in the organic extract phase (=first alcoholic phase) based on the totality of the organic secondary components in the two phases (=m(SC)ORG/m(SC)TOT). For this purpose, a separation was conducted by HPLC; organic impurities that elute earlier than ortho-aminobenzoic acid are referred to collectively as polar secondary components, and organic impurities that elute later than ortho-aminobenzoic acid as nonpolar secondary components.

[1] = One-stage extraction of ortho-aminobenzoic acid from crystallization mother liquor with various extractants (partition coefficient); conditions: pH 3.5±0.2, 8.7 g/L oAB, phase ratio organic to aqueous 0.5, 30° C.
Procedure: For the evaluation of the distribution of a component between two phases, the two phases were analyzed by HPLC-MS (with identical sample preparation and method). The coefficients of distribution were then determined as the ratio of peak areas for the same retention time.
as §1

Row | Structure (SMILES) | Solubility in water at RT (physchem) | solubility (physchem) | other results
1 | CCCCCCCCCCO [1-Decanol] |  | 40 µg/mL (≈ 253 µM) | 
2 | CCC(C)=O [2-Butanone] |  |  | K = c(oAB)ORG/c(oAB)AQ (partition coefficient of ortho-aminobenzoic acid, organic to aqueous phase) [1]: 26.12
3 | CCCCOC(C)=O [Butyl acetate] |  | ~6000 µg/mL | 

Further lines, with some results ahead:

Row | Solubility in water at RT (physchem) | Structure (SMILES) | solubility (physchem) | other results
4 | insoluble | CC1CCCC1 [Methylcyclopentane] |  | 
5 | insoluble | CCCCCCCC/C=C\CCCCCCCCO [Oleyl alcohol] |  | 
